# In patent US7256286B2, “Bryostatin analogues, synthetic methods and uses” (The Board of Trustees of the Leland Stanford Junior …, priority 1999, dated 2007):
# Read-outs that look alike come from different tables or passages of the source.
# Assays:
# [1] = target: PKC purified from rat brain (mixture of PKC isoenzymes); experiment: Protein kinase C (isozyme mix) assay; assay type: binding; conditions: determined under identical conditions to the PKC isozyme mix assay; read-out: Kd of [H^3]-PDBu
# Protocol: In one approach, anticancer activity of compounds of the invention can be assessed using the protein kinase C assay detailed in Example 5. In this assay, Ki values are determined for analogues based on competition with radiolabeled phorbol 12,13-dibutyrate for binding to a mixture of PKC isoenzymes. PKC enzymes are implicated in a variety of cellular responses which may be involved in the activity of the bryostatins.
# The following procedure was used, based on a modification of a previous procedure described by Tanaka et al. (1986). Filters (Whatman GF-B, 21 mm diam.) are soaked for 1 h in a solution containing deionized water (97 mL), and 10% polyethyleneamine (3 mL). A filtering buffer solution containing TRIS (1M, pH 7.4, 10 mL) and water (490 mL) is prepared and cooled on ice. […] Non-specific binding is measured in 1–3 tubes by the substitution of phorbol myristate acetate (PMA) (1 mM, 5 μL) and EtOH (15 μL) for the analogue/EtOH combination. […] The filters are immediately counted in a scintillation counter (Beckman LS 6000SC). […] The data is then plotted using a least squares fit algorithm with the Macintosh version of Kaleidagraph© (Abelbeck Software) and an IC50 (defined as the concentration of analogue required to displace half of the specific PDBU binding to PKC) is calculated. […]
# PKCδ-C1B = target: T1, PKCδ-C1B (Mus musculus, UniProt P28867); experiment: PKCδ-C1B assay; assay type: binding
# T1 construct: made in house
# T1 sequence (P28867 231-281 limits assumed): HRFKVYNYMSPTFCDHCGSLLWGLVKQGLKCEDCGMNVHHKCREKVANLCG
# Protocol: Phosphatidyl serine vesicles are prepared by the addition of phosphatidyl serine (10 mg/mL in chloroform, 0.4 mL) to a glass test tube followed by removal of the chloroform under a stream of nitrogen (5 min). […] The resulting solution is stored over ice. […] Stock solutions of compounds are diluted with absolute ethanol in glass in serial fashion. […] The tubes are incubated at 37° C. for 90 min. and then put on ice for 5 min. Each tube is then filtered separately through a pre-soaked filter disc. […] The filter is subsequently rinsed with cold 20 mM TRIS buffer (5 mL) dropwise. […] The filters are immediately counted in a scintillation counter (Beckman LS 6000SC). Counts per minute are averaged among three trials at each concentration.
# P388 cell line = experiment: P388 murine lymphocytic leukemia cell assay; assay type: cell-based; conditions: Mus musculus, P388, 120 h; 5 days incubation, MTT; read-out: P388 Assay ED50
# Protocol: Cells from a P388 cell line (CellGate, Inc., Sunnyvale, Calif.) are grown in RPMI 1640 cell medium containing fetal calf serum (10%), L-glutamine, penicillin, streptomycin and are split twice weekly. All compounds are first diluted with DMSO. Later serial dilutions are done with a phosphate buffer solution (HYQ DPBS modified phosphate buffered saline). All dilutions are done in glass vials and the final DMSO concentration is always below 0.5% by volume. Final two-fold dilutions are done in a 96 well plate using cell media so that each well contains 50 μL. All compounds are assayed in quadruplicate over 12 concentrations. Cell concentration is measured using a hemacytometer and the final cell concentration is adjusted to 1×10^4 cells/mL with cell medium. The resulting solution of cells (50 μL) is then added to each well and the plates are incubated for 5 days in a 37° C., 5% CO2, humidified incubator (Sanyo CO2 incubator). MTT solution (3-[4,5-dimethylthiazol-2-yl]-2,5-diphenyltetrazolium bromide, 10 μL) is then added to each well and the plates are re-incubated under identical conditions for 2 h. To each well is then added acidified isopropanol (150 μL of i-PrOH solution containing 0.05 N HCl) and mixed thoroughly. The plates are then scanned at 595 nm and the absorbances are read (Wallac Victor 1420 Multilabel Counter). The resulting data is then analyzed to determine an ED50 value using the Prism software package (GraphPad).
Structure (SMILES),Kd [1],Kd (PKCδ-C1B; Kd value printed in the Ki column),EC50 (P388 cell line),"Ki (PKCδ-C1B; competition with tritiated phorbol 12,13-dibutyrate, read-out: PKCδ-C1B Assay Ki)",Ki (PKCδ-C1B)
"CCCC(=O)O[C@@H]1[C@@H](C)[C@@]2(O)[C@@H](C=C(CO)C[C@]3(O)C(=O)C(C)=C[C@@H]23)[C@@H]2C(C)(C)[C@]12OC(=O)CCC [Phorbol dibutyrate, phorbol 12,13-dibutyrate, reference compound]",1.55 nM,1.7 nM,,,
COC(=O)/C=C1\C[C@H]2C[C@H]([C@@H](C)O)OC(=O)C[C@H](O)C[C@@H]3CCC[C@H](C[C@@H]4CCO[C@H](/C=C/C(C)(C)[C@](O)(O2)C1OC(C)=O)O4)O3 (stereo partly drawn) [Formula 702.2],,,181 nM,232 ± 11 nM,
"CCCCCCCC(=O)O[C@H]1/C(=C/C(=O)OC)CC2C[C@H]([C@@H](C)O)OC(=O)C[C@H](O)C[C@@H]3CCC[C@H](C[C@@H]4CCO[C@H](/C=C/C(C)(C)[C@]1(O)O2)O4)O3 [Formula 1998a, reference compound]",,,76 nM,,5.1 nM
